Experiments:
Tm5a and Tm5b [1] = assay: Apical αf9d antibody staining pixel intensity by confocal microscopy in T84 cell monolayers; type: cell-based, human; details: 2 μM oligonucleotide for 24 hours, mean±1 SD
Protocol: (§1) Cells were washed in 2% foetal bovine serum (FBS) in phosphate buffered saline (PBS) then fixed with 4% paraformaldehyde. They were permeabilised with 100% methanol, chilled to −80° C., for 20 minutes. Cells were incubated at room temperature with primary and secondary antibodies for 1 hour with washes performed with 2% FBS in PBS 3 times for 10 minutes after each incubation. Coverslips were mounted onto the slides with the anti-fade reagent DABCO.
(§2) Fluorescence was examined with a confocal laser scanning microscope (Leica Microsystems, Wetzler, Germany) using a 63× oil emersion objective. The distribution of fluorophores was measured by scanning at 488 nm for FITC and 568 nm for rhodamine using 8 line averages to eliminate noise. Images were taken in the vertical (xz) and horizontal (xy) plane. Images in the horizontal plane were constructed by overlaying sections taken at 1 μm steps from the apical to the basal region of the cells.
The pixel intensity of Tm antibody staining was measured on images obtained by confocal microscopy. Measurements were made across the apical region and across the central region of monolayers and averaged to obtain the mean pixel intensity for individual monolayers. […]

CFTR [2] = assay: Enzyme linked surface CFTR assay in T84 cell monolayers; type: cell-based, human; details: for CFTR surface expression, absorbance at 655 nm normalised to the nonsense treated group: 2 μM oligonucleotide for 24 hours, mean±1 SD; for CFTR surface expression, absorbance at 655 nm normalised to the control group: forskolin stimulated T84 cell monolayers, 33 μM nocodazole for 3 hours, mean±SD
Protocol: T84 cell monolayers cultured on collagen coated glass coverslips were incubated in either chloride buffer with 10 μM forskolin or chloride buffer only for 30 minutes at 37° C. in 5% CO2 then fixed with 4% paraformaldehyde for 20 minutes at 4° C. The T84 cell monolayers were incubated for 1 hour firstly with CFTR (MA1-935) antibody (Walker et al., 1995) diluted 1:500 followed by HRP anti-mouse IgG diluted 1:1000. T84 cell monolayers were blocked prior to each incubation for 10 minutes in PBS containing 10% FBS and washed following each incubation 4 times in PBS. The coverslips were then placed into a clean 24 well plate and incubated for 30 minutes with 500 μl of 3′3′5′5′ Tetra methyl benzidine. The supernatant from each well was transferred to a cuvette and absorbance determined at 655 nm in a Beckman DU650 spectrophotometer. Absorbance was also determined at 655 nm for primary antibody negative controls and that amount was subtracted from the absorbance in primary antibody positive monolayers to determine their assay result.
The CFTR surface expression is reported as the absorbance measured at 655 nm, normalised to the mean absorbance for the control group within individual experiments. To determine the effects of treatment, normalised absorbance at 655 nm was compared between groups. Two group comparisons were made using the Student t test.
(§3) Cultured T84 colon cancer cell monolayers grown in collagen coated 24 well plates or on plastic coverslips were used as a model of the gastrointestinal epithelium. Incubation of monolayers inoculated with EPEC ([…]) for 6-9 hours was used to model EPEC infection and was compared with HB101, a non-pathogenic control. Antisense oligonucleotides were used to reduce tropomyosin 5a and 5b expression. An immuno-colourimetric assay was used to assess CFTR surface expression and intra-cellular MQAE fluorescence was used to assess chloride efflux.

T84 cell monolayers = assay: MQAE chloride efflux assay; type: cell-based, human; details: for cumulative chloride efflux at 15 minutes, percentage increase in fluorescence normalised to the nonsense group: 2 μM oligonucleotide 24 hours, 10 μM forskolin, mean±1 SD; for cumulative chloride efflux at 15 minutes, percentage increase in fluorescence normalised to the control group: nocodazole 33 μM for 3 hours, mean±SD
Protocol: T84 cell monolayers, cultured on 24 or 96 well plates were incubated in medium containing 10 mM MQAE for 16 hours. The monolayers were then washed 3 times in chloride buffer (2.4 mM Na2HPO4, 0.6 mM NaH2PO4, 1 mM K2SO4, 1 mM MgSO4, 3.4 mM KCl, 124.6 mM NaCl, 1 mM CaCl2, 10 mM glucose and 10 mM HEPES ). T84 cell monolayers were stimulated with forskolin by incubating with chloride buffer containing 10 μM forskolin for 10 minutes, after which the chloride buffer was removed and replaced with chloride free buffer (2.4 mM Na2HPO4, 0.6 mM NaH2PO4, 1 mM K2SO4, 1 mM MgSO4, 3.4 mM KNO3, 1 mM Ca(NO3)2, 124.6 mM NaNO3, 10 mM glucose and 10 mM HEPES) containing 10 μM forskolin. Repetitive fluorescence measurements were initiated immediately using a fluorescence plate reader (excitation, λ-360 nm; emission, λ-460 nm). Measurements were performed every 30 to 60 seconds for 15 minutes.
Chloride efflux was measured as the percentage increase in fluorescence between baseline and the specified time point. The percentage increase in fluorescence was normalised within experiments to the mean percentage increase in fluorescence in the control group in that experiment. To determine the effects of treatments, the normalised percentage increase in fluorescence was compared between groups. Two group comparisons were made using the Student t test.
as §3

tropomyosin isoforms = assay: Immunofluorescence localisation of tropomyosin isoforms in T84 cells after treatment; type: cell-based, human; details: for effect on polarised distribution of αf9d staining: T84 cell monolayers, 2 μM oligonucleotide for 24 hours
Protocol: as §1, §2
(§4) Epithelial cell monolayers were trypsinalised using trypsin/EDTA and centrifuged to form a cell pellet. The cells were then resuspended in medium containing either 1 μM jasplakinolide, 20 μM cytochalasin D or 33 μM nocodazole and seeded into poly-d-lysine and collagen coated glass chamber slides. The developing monolayers were then fixed and stained at 10 minutes after seeding. The effect of nocodazole on microtubules was confirmed by staining with antibodies to β tubulin and comparing with untreated cells. Mature T84 cell monolayers were treated with medium containing 20μM cytochalasin D for 3 hours then fixed and stained. Immunofluorescence analysis was then performed as described above.
The sequence of the antisense and nonsense phosphorothioated oligonucleotides to Tm5a and Tm5b were 5′-[…] (SEQ ID NO:14) and 5′-[…] (SEQ ID NO:15) respectively. These were designed from the exon 1b sequence of the human αTMfast gene (Novy et al., 1993, Cell Motility & the Cytoskeleton 25, 267-281). T84 cell monolayers were grown to confluence on coverslips, in glass chamber slides or 24 well plates. The oligonucleotides were applied at a concentration of 2 μM with Lipofectin Reagent at 10 μg/ml according to the manufacturers instructions. The T84 cell monolayers were then incubated with the oligonucleotide for 24 hours at 37° C. in 5% CO2 after which time they were used for experiments that required oligonucleotide pretreatment.

microtubules = assay: β tubulin staining to confirm effect on microtubules; type: cell-based, human; details: T84 cells, 33 μM nocodazole
Protocol: as §4, with “The effect of nocodazole on microtubules was confirmed by staining with antibodies to β tubulin and comparing with untreated cells.” left out

CFTR [3] = details: cytochalasin D induced disruption of actin filaments; Prat et al., 1995; cited from earlier work
Tm5a and Tm5b [4] = assay: Western blot (immunoblot) of tropomyosin isoforms in T84 cells; type: cell-based, human; details: 24 hours exposure, 2 μM, Western blot band density
Protocol: The sequence of the antisense and nonsense phosphorothioated oligonucleotides to Tm5a and Tm5b were 5′-CAC CGC CUC CAG CGA GCT (SEQ ID NO:14) and 5′-GCT CCA GCC ACG CCG ACT (SEQ ID NO:15) respectively. These were designed from the exon 1b sequence of the human αTMfast gene (Novy et al., 1993, Cell Motility & the Cytoskeleton 25, 267-281). T84 cell monolayers were grown to confluence on coverslips, in glass chamber slides or 24 well plates. The oligonucleotides were applied at a concentration of 2 μM with Lipofectin Reagent at 10 μg/ml according to the manufacturers instructions. The T84 cell monolayers were then incubated with the oligonucleotide for 24 hours at 37° C. in 5% CO2 after which time they were used for experiments that required oligonucleotide pretreatment.
Proteins were extracted from T84 cells using the method of Wessel and Flugge (Wessel and Flugge, 1984). Western blot was performed as described (Percival et al., 2000, Cell Motility & the Cytoskeleton 47, 189-208). […] Bound antibody was detected using HRP-conjugated goat anti-rabbit or goat anti-mouse IgG. The bands were detected using Western Lightening™ chemiluminescence reagent and exposure to x-ray film.
Protein expression was measured as the density of protein bands on Western blot autoradiographs using the computer program Molecular Analyst (Version 1.5, Bio Rad Laboratories, Calif., U.S.A.). […]

With “5′-GCT CCA GCC ACG CCG ACT (GCTCCAGCCACGCCGACT; all phosphorothioate, sugars by position and methylation of C not given here) [Nonsense, Scrambled nonsense control oligonucleotide]” the “apical αf9d antibody staining pixel intensity” value (Tm5a and Tm5b [1]) was 150.86±48.28, the “CFTR surface expression, absorbance at 655 nm normalised to the nonsense treated group” value (CFTR [2]; T84 cell monolayers) was 1±0.42 and the “cumulative chloride efflux at 15 minutes, percentage increase in fluorescence normalised to the nonsense group” value (T84 cell monolayers) was 1±0.36. The “effect on polarised distribution of αf9d staining” value (tropomyosin isoforms) was “essentially no effect on the distribution of staining”.
In the case of COC(=O)Nc1nc2ccc(C(=O)c3cccs3)cc2[nH]1 [Nocodazole, nocodazole], the “CFTR surface expression, absorbance at 655 nm normalised to the control group” value (CFTR [2]) is reported as 0.92±0.25, the “CFTR surface expression, absorbance at 655 nm normalised to the control group” value (CFTR [2]; listed as nocodazole) is reported as “failed to elicit any significant change” and the “cumulative chloride efflux at 15 minutes, percentage increase in fluorescence normalised to the control group” value (T84 cell monolayers) is reported as 1.01±0.43. For the same compound, the “cumulative chloride efflux at 15 minutes, percentage increase in fluorescence normalised to the control group” value (T84 cell monolayers; listed as nocodazole) was “failed to elicit any significant change”, the “distribution of 311 antibody staining 10 minutes post-seeding” value (tropomyosin isoforms; T84 cells pretreated in suspension before seeding (jasplakinolide 1 μM, nocodazole 33 μM)) was “enrichment at the apical surface” and the “microtubular structure by β tubulin staining” value (microtubules) was “disrupted normal microtubular structure”.
In the case of C=C1[C@@H](C)[C@H]2[C@H](Cc3ccccc3)NC(=O)[C@]23[C@H](OC(C)=O)/C=C/[C@@](C)(O)C(=O)[C@@H](C)C/C=C/[C@H]3[C@@H]1O [cytochalasin D], the “effect on polarised distribution of αf9d staining in established monolayers” value (tropomyosin isoforms; mature T84 cell monolayers, 20 μM cytochalasin D for 3 hours) is listed as “eliminated the polarised distribution of αf9d staining” and the “effect on chloride currents through CFTR” value (CFTR [3]) is listed as “increase chloride currents through CFTR”.
For “5′-CAC CGC CUC CAG CGA GCT (antisense CACCGCCUCCAGCGAGCT; all phosphorothioate, sugars by position and methylation of C not given here) [Antisense phosphorothioated oligonucleotide to Tm5a and Tm5b, targeted to exon 1b of the TPM1 gene]”, the “apical αf9d antibody staining pixel intensity” value (Tm5a and Tm5b [1]) was 53.62±31.62, the “mean reduction in Tm5a and Tm5b levels relative to nonsense treatment” value (Tm5a and Tm5b [4]) was 54±13% and the “increase in CFTR surface expression, antisense compared with nonsense controls” value (CFTR [2]; T84 cell monolayers, 2 μM for 24 hours) was 50%. For the same compound, the “CFTR surface expression, absorbance at 655 nm normalised to the nonsense treated group” value (CFTR [2]; T84 cell monolayers) was 1.49±0.78, the “cumulative chloride efflux at 15 minutes, percentage increase in fluorescence normalised to the nonsense group” value (T84 cell monolayers) was 1.47±0.41 and the “effect on polarised distribution of αf9d staining” value (tropomyosin isoforms) was “eliminated the polarised distribution of αf9d staining”.

— US20060263781A1, “Regulation of cell surface proteins” (priority 2003, published 2006)
